Measurements as given in patent publication US9422267B2, “Fused pyrimidine compounds and use thereof” (Medivation Technologies, Inc., priority 2012, dated 2016).
Each block holds one compound with its values, some of them ahead of it.

Columns and labels:
[1] = molecular target: T1, ABL (Homo sapiens, UniProt P00519); assay: Caliper kinase profiling: ABL; type: biochemical; settings: read-out: Average % Inh @ 1 μM
T1 construct: purchased Caliper LifeSciences (ProfilerPro Kinase Selectivity Assay Kits)

[2] = molecular target: T2, Abl(H396P) (Homo sapiens, UniProt P00519, H396P); assay: Caliper kinase profiling: Abl(H396P); type: biochemical; settings: read-out: Average % Inh @ 1 μM
T2 construct: purchased Caliper LifeSciences (ProfilerPro Kinase Selectivity Assay Kits)

[3] = molecular target: T3, ABL1(G250E) (Homo sapiens, UniProt P00519, G250E); assay: Caliper kinase profiling: ABL1(G250E); type: biochemical; settings: read-out: Average % Inh @ 1 μM
T3 construct: purchased Caliper LifeSciences (ProfilerPro Kinase Selectivity Assay Kits)

[4] = molecular target: T4, ABL1(Y253F) (Homo sapiens, UniProt P00519, Y253F); assay: Caliper kinase profiling: ABL1(Y253F); type: biochemical; settings: read-out: Average % Inh @ 1 μM
T4 construct: purchased Caliper LifeSciences (ProfilerPro Kinase Selectivity Assay Kits)

[5] = molecular target: T5, AMPK-α2/β1/γ1 (Homo sapiens, UniProt P54646); assay: Caliper kinase profiling: AMPK-α2/β1/γ1; type: biochemical
T5 construct: purchased Caliper LifeSciences (ProfilerPro Kinase Selectivity Assay Kits)

[6] = molecular target: T6, BLK (Homo sapiens, UniProt P51451); assay: Caliper kinase profiling: BLK; type: biochemical
T6 construct: purchased Caliper LifeSciences (ProfilerPro Kinase Selectivity Assay Kits)

[7] = molecular target: DCAMKL1 (Homo sapiens, UniProt O15075); assay: Caliper kinase profiling: DCAMKL1; type: biochemical; settings: DCAMKL1, 1 μM; read-out: Average % Inh @ 1 μM
[8] = molecular target: DCAMKL2 (Homo sapiens, UniProt Q8N568); assay: Caliper kinase profiling: DCAMKL2; type: biochemical; settings: DCAMKL2, 1 μM; read-out: Average % Inh @ 1 μM
[9] = molecular target: DDR2 (Homo sapiens, UniProt Q16832); assay: Caliper kinase profiling: DDR2; type: biochemical; settings: DDR2, 1 μM; read-out: Average % Inh @ 1 μM
[10] = molecular target: EPHA4 (Homo sapiens, UniProt P54764); assay: Caliper kinase profiling: EPHA4; type: biochemical; settings: EPHA4, 1 μM; read-out: Average % Inh @ 1 μM
[11] = molecular target: FGFR1 (Homo sapiens, UniProt P11362); assay: Caliper kinase profiling: FGFR1; type: biochemical
[12] = molecular target: FGFR3 (Homo sapiens, UniProt P22607); assay: Caliper kinase profiling: FGFR3; type: biochemical; settings: FGFR3, 1 μM; read-out: Average % Inh @ 1 μM
[13] = molecular target: FLT3 (Homo sapiens, UniProt P36888); assay: Caliper kinase profiling: FLT3; type: biochemical; settings: FLT3, 1 μM; read-out: Average % Inh @ 1 μM
[14] = molecular target: FRK (Homo sapiens, UniProt P42685); assay: Caliper kinase profiling: FRK; type: biochemical; settings: read-out: Average % Inh @ 1 μM
[15] = molecular target: ITK (Homo sapiens, UniProt Q08881); assay: Caliper kinase profiling: ITK; type: biochemical; settings: read-out: Average % Inh @ 1 μM
[16] = molecular target: KDR (Homo sapiens, UniProt P35968); assay: Caliper kinase profiling: KDR; type: biochemical; settings: read-out: Average % Inh @ 1 μM
Procedure: The compound was tested at concentrations of 1.0×10^−8 and 1.0×10^−9 M in the RapidKinase192™ panel in duplicate. […] The screening was performed using the Caliper EZReader2, a 4-sipper LabChip, and ProfilerPro Kinase Selectivity Assay Kits 1 and 2. The assay measures the conversion of a fluorescent peptide substrate to a phosphorylated product. Briefly, the reaction mixture was introduced through a capillary sipper onto the microfluidic chip, where the substrate and product were electrophoretically separated and detected by laser-induced fluorescence. The time-dependent fluorescence signal indicates the extent of the reaction.

[17] = molecular target: PAK5(PAK7) (Homo sapiens, UniProt Q9P286); assay: Caliper kinase profiling: PAK5(PAK7); type: biochemical; settings: read-out: Average % Inh @ 1 μM
[18] = molecular target: PhKg2 (Homo sapiens, UniProt P15735); assay: Caliper kinase profiling: PhKg2; type: biochemical; settings: PhKg2, 1 μM; read-out: Average % Inh @ 1 μM
[19] = tested on: ZR-75-1; assay: Cell Titer-Glo cell viability: ZR-75-1; type: cell-based; settings: Homo sapiens; ZR-75-1, breast cancer; 72 h
Procedure: Compound nos. […] This panel of cell lines includes an ER− breast carcinoma, primary breast ductal carcinoma, prostate adenocarcinoma, mammary adenocarcinoma, mammary ductal carcinoma, mammary ductal carcinoma, ovary adenocarcinoma, ER+ breast carcinoma, ER-HER2+ mammary ductal carcinoma and an ER+ mammary ductal carcinoma, respectively.
(§1) This assay quantitates the ATP present in order to determine the number of viable cells in culture. Briefly, the compounds were incubated with the cells for 72 h, followed by cell lysis. The resulting luminescent signal is proportional to the amount of ATP present and, therefore, directly proportional to the number of cells present in culture.

[20] = tested on: PANC-1; assay: Cell viability: pancreatic cancer cell line PANC-1; type: cell-based; settings: Homo sapiens; PANC-1 pancreatic cancer cell line
Procedure: as §1
Analogous studies utilizing pancreatic cancer cell lines such as ASPC-1 and PANC-1 can be performed with compounds of the invention.

[21] = tested on: human colon cancer COLO-205 cells; assay: Efficacy in xenograft model of human colon cancer; type: in vivo, mice
Procedure: To evaluate the efficacy of tumor growth inhibition, the compound 8b was studied using human cancer mouse models. The models are prepared by subcutaneously or orthotopically implanting mice with human cancer cells. When the tumor size of the mice develops (e.g., reaches 100 mm^3), the mice are divided into groups for treatment with compound 8b (where different groups receiving the compound 8b may be administered different amounts of the compound 8b) or are provided no compound as a control. The mice are treated (e.g., orally administered a compound of the invention) for a period of time. During the course of the study, the tumor is measured and the weight of the mice is determined. After the treatment period, the mice are sacrificed shortly (e.g. 1 or 2 hours) after the final dose. Blood and tissue are collected for biochemical analysis.
To evaluate the efficacy of tumor growth inhibition, compound 8b was studied using a human colon cancer mouse model. […] Tumor volume and mouse body weight were monitored over the 20 day experiment. […]
The appropriate amount of compound 8b was sonicated in a PEG-400 solution (80% w/v in case of Example B6B; and 50% w/v in case of Example B6C) to completely dissolve the compound, followed by dropwise addition of the required amount of H2O. […] During the course of the study, the tumor was measured and the weight of the mice was determined. […]

Chain of FGFR1 (P11362 22-822): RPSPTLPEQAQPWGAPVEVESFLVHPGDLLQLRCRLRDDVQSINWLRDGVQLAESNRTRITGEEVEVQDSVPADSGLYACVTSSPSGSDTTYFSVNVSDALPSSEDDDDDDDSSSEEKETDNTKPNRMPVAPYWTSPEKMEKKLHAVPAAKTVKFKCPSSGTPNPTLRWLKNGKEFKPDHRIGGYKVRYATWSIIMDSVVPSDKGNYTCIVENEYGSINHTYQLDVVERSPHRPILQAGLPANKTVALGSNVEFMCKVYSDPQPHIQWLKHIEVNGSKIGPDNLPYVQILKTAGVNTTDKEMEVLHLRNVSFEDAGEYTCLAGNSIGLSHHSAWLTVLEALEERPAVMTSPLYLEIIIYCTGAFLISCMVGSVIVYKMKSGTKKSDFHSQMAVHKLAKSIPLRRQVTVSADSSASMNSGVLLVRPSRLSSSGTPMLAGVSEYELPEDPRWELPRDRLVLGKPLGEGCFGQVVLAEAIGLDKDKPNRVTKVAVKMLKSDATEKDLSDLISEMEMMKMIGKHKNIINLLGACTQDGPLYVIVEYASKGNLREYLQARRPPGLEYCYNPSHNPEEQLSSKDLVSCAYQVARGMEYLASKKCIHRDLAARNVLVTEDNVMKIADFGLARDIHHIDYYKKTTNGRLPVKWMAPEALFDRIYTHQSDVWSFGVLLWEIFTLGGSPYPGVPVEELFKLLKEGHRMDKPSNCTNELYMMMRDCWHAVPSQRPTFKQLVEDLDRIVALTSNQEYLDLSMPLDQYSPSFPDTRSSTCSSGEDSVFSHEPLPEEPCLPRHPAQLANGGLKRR
T5 sequence (P54646 whole entry): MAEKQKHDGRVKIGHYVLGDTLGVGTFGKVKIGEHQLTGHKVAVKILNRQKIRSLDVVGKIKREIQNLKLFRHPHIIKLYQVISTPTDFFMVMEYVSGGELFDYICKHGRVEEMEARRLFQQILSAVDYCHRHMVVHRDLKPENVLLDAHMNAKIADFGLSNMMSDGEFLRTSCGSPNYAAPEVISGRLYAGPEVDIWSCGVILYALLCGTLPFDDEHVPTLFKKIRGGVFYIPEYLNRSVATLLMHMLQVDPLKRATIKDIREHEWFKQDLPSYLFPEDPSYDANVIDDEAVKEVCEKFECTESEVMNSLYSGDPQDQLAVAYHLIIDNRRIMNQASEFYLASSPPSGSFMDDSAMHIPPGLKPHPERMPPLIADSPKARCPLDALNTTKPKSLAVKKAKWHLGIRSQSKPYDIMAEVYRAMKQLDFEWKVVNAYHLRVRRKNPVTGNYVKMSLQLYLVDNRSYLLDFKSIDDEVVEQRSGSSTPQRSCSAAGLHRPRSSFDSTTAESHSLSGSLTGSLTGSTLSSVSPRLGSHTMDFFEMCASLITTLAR
T5 sequence (Q9Y478 whole entry partner): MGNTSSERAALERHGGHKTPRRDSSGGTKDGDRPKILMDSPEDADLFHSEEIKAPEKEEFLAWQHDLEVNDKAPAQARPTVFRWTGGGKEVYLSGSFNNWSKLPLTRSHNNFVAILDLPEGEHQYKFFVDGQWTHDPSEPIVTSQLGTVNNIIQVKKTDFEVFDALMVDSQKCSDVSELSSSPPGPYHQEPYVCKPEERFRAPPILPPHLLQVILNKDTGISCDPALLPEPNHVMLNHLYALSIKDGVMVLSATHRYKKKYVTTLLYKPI
T5 sequence (P54619 whole entry partner): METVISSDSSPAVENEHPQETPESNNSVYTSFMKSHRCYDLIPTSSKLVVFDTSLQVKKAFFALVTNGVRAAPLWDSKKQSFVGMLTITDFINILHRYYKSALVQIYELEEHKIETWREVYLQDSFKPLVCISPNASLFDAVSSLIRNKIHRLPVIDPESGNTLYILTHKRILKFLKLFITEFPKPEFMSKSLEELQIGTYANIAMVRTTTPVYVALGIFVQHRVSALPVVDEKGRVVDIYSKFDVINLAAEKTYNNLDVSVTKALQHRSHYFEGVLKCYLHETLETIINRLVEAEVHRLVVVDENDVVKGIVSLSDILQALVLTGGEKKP
T6 sequence (P51451 whole entry): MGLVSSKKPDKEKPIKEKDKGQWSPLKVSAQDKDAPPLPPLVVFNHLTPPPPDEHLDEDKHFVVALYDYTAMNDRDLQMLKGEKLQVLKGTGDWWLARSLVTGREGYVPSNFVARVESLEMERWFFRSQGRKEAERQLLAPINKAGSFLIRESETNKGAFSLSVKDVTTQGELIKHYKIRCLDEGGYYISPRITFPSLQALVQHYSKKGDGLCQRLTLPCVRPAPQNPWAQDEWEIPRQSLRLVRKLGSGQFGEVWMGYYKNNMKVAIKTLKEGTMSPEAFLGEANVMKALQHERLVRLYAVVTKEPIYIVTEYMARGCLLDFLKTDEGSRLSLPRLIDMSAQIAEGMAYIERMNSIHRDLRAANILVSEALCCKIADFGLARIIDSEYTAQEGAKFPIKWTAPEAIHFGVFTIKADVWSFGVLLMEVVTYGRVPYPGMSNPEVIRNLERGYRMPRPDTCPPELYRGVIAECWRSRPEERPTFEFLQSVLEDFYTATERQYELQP
Chain of KDR (P35968 20-1356): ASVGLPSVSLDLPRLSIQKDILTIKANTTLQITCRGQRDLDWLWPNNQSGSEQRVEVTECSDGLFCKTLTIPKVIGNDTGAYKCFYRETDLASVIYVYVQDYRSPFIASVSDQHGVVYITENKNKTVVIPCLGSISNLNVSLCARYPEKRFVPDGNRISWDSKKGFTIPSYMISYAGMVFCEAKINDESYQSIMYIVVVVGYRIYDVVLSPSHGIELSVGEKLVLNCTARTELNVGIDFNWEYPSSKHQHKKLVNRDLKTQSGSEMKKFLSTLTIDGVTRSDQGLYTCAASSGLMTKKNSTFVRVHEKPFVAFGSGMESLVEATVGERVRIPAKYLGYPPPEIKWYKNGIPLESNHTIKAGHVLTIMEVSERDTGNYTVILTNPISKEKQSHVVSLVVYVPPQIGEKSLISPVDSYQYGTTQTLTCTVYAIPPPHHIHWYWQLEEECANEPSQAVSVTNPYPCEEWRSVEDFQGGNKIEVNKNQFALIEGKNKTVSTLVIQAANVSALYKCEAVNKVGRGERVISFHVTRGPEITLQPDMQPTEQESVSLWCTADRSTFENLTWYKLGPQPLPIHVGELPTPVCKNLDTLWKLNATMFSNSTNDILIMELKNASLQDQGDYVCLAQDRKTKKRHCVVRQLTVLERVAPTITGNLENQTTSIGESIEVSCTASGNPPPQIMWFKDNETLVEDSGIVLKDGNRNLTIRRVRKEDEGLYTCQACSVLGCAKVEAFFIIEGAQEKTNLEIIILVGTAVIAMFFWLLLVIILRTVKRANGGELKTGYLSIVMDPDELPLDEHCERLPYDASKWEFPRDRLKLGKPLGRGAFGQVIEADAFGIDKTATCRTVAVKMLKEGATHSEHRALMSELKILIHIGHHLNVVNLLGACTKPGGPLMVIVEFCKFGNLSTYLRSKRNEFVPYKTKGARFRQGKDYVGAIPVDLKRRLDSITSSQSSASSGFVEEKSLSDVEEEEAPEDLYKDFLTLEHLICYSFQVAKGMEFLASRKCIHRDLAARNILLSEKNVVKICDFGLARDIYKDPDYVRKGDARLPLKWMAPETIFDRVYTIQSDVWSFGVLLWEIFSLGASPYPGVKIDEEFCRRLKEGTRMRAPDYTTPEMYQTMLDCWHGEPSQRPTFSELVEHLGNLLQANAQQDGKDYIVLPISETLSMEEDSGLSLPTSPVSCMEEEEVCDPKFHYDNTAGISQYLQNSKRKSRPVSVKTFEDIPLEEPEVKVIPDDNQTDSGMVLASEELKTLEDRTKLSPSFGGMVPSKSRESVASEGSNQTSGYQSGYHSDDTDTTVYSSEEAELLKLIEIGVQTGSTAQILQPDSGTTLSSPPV
Chain of PhKg2 (P15735 whole entry): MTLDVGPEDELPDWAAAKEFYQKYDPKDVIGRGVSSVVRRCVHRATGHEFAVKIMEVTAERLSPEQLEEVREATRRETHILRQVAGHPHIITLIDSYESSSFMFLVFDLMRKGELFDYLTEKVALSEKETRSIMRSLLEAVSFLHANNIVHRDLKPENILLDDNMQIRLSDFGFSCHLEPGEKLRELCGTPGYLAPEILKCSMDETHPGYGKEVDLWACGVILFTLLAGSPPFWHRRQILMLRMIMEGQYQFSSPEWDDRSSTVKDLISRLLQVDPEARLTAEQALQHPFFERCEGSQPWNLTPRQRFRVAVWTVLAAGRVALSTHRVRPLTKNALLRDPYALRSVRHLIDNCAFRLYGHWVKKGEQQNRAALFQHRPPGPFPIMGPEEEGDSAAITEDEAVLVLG
Chain of PAK5(PAK7) (Q9P286 whole entry): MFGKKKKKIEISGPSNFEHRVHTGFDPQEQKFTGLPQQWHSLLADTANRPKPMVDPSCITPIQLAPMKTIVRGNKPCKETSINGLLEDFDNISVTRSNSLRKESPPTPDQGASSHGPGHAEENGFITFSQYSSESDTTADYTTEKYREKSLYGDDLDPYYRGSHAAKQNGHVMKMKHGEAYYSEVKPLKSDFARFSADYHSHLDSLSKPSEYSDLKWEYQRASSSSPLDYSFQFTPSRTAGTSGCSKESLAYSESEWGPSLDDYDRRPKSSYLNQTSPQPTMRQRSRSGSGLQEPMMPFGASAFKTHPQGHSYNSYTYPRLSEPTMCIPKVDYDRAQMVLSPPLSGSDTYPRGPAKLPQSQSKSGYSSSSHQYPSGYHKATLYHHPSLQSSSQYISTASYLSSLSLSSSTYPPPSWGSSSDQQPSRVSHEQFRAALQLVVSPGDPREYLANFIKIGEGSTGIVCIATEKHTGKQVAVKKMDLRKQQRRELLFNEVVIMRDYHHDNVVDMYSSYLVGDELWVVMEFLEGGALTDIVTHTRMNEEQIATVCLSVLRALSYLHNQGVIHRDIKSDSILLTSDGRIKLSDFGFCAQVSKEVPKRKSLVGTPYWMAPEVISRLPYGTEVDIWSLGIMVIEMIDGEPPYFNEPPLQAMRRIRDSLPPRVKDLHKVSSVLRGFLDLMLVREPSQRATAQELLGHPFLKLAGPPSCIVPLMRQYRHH

inhibition at 1 µM [1]: 40 to 59% | inhibition at 1 µM [2]: 40 to 59% | inhibition at 1 µM [3]: > 60% | inhibition at 1 µM [4]: 40 to 59% | inhibition at 0.01 µM ([5]; AMPK-α2/β1/γ1, 10 nM, read-out: Average % Inh @ 10 nM): < 39% | inhibition at 0.1 µM ([5]; AMPK-α2/β1/γ1, 100 nM, read-out: Average % Inh @ 100 nM): 40 to 59% | inhibition at 1 µM ([5]; AMPK-α2/β1/γ1, 1 μM, read-out: Average % Inh @ 1 μM): > 60% | inhibition at 0.01 µM ([6]; 10 nM, read-out: Average % Inh @ 10 nM): < 39% | inhibition at 0.1 µM ([6]; 100 nM, read-out: Average % Inh @ 100 nM): < 39% | inhibition at 1 µM ([6]; 1 μM, read-out: Average % Inh @ 1 μM): > 60% | inhibition at 1 µM [7]: 40 to 59% | inhibition at 1 µM [8]: > 60% | inhibition at 1 µM [9]: > 60% | inhibition at 1 µM [10]: 40 to 59% | inhibition at 0.01 µM ([11]; FGFR1, 10 nM, read-out: Average % Inh @ 10 nM): < 39% | inhibition at 0.1 µM ([11]; FGFR1, 100 nM, read-out: Average % Inh @ 100 nM): < 39% | inhibition at 1 µM ([11]; FGFR1, 1 μM, read-out: Average % Inh @ 1 μM): > 60% | inhibition at 1 µM [12]: > 60% | inhibition at 1 µM [13]: 40 to 59% | inhibition at 1 µM [14]: > 60% | inhibition at 1 µM [15]: 40 to 59% | inhibition at 1 µM [16]: 40 to 59% | inhibition at 1 µM [17]: 40 to 59% | inhibition at 1 µM [18]: 40 to 59%
Compound: O=C(Nc1ccc(F)nc1)C1CCCN1c1nc2c(c(Nc3cc(C4CC4)[nH]n3)n1)CCC2 (single isomer, unassigned) [Compound 2b, 1-(4-(5-cyclopropyl-1H-pyrazol-3-ylamino)-6,7-dihydro-5H-cyclopenta[d]pyrimidin-2-yl)-N-(6-fluoropyridin-3-yl)pyrrolidine-2-carboxamide]

IC50 [20]: 3.66 µM
Compound: CC(C)c1cc(Nc2nc(N3CCCC3C(=O)Nc3ccc(F)nc3)nc3c2CCC3)n[nH]1 (single isomer, unassigned) [Compound 8b]
IC50 [19]: < 100 µM | tumor burden ([21]; COLO205 colon cancer model, nude mice, 1, 3, 10, 15 mg/kg oral, 20 day experiment (FIG. 1)): dose-dependently and significantly reduced tumor burden | body weights of the mice ([21]; COLO205 xenograft model (FIG. 3)): dose-dependently reduced body weights
